Experimental data published in patent US20170333391A1, “METHOD FOR DELAYING THE ONSET OF PULMONARY FIBROSIS OR TREATING PULMONARY FIBROSIS” (EVERFRONT BIOTECH INC., priority 2016, published 2017).

Experiments:
[1] = tested on: C57B/L6 mice injected with Bleomycin sulfate (inducer of pulmonary fibrosis); assay: Pulmonary function by unrestrained whole body plethysmography in Bleomycin sulfate mice; type: in vivo; conditions: compared to oil group; for accumulated volume (AV): p<0.01; for expiratory time (Te) / relaxation time (RT): p<0.05
Description: 24 C57B/L6 mice (age: four weeks) were separated into four groups (6 mice in each group). Each group was respectively treated under the following conditions to conduct follow-up experiments: • (1) Control group (mice without pulmonary fibrosis; i.e., normal mice): 50 μl of PBS was administrated to each mouse by intratracheal injection, and then the mice were fed for 30 days; • (2) Oil group: 0.6 U/50 μl of Bleomycin sulfate (dissolved in PBS) was administrated to each mouse by intratracheal injection, and then 100 μl of olive oil was orally administrated to each mouse every day for 30 days; • (3) Low-dose group: 0.6 U/50 μl of Bleomycin sulfate (dissolved in PBS) was administrated to each mouse by intratracheal injection, and then compound (1) (10 mg/kg-body weight, prepared with olive oil to provide a final volume of 100 μl) was orally administrated to each mouse every day for 30 days; and • (4) High-dose group: 0.6 U/50 μl of Bleomycin sulfate (dissolved in PBS) was administrated to each mouse by intratracheal injection, and then compound (1) (50 mg/kg-body weight, prepared with olive oil to provide a final volume of 100 μl) was orally administrated to each mouse every day for 30 days.
In this experiment, the pulmonary functions of the mice from each group of Example 5 were evaluated with Unrestrained Whole Body Plethysmography (WBP). The inspiratory and expiratory flow rates of mice were calculated by measuring changes in the air inside and outside of a specific chamber, and respiratory parameters can be obtained therefrom. The respiratory parameters comprise the peak inspiratory flow (PIF) (i.e., the maximal volume being inspired in a period of time), peak expiratory flow (PEF) (i.e., the maximal volume being expired in a period of time), inspiratory time (Ti) (i.e., the average time of inspiration in a period of time), expiratory time (Te) (i.e., the average time of expiration in a period of time), respiratory rate (RR) (i.e., the numbers of breath per minute), accumulated volume (AV) (i.e., the average volume of air being breathed per minute), tidal volume (TV) (i.e., the average volume of air being expired per time), relaxation time (RT) (i.e., the average time needed for raising the pressure of air hatch to 40% of the maximal value), etc.

[2] = tested on: IL-β; assay: IL-β mRNA in mouse pulmonary tissue, RT-PCR; type: in vivo, mice; conditions: Bleomycin sulfate, normal control = 1, oil group = 2.34
Text: (§1) 24 C57B/L6 mice (age: four weeks) were separated into four groups (6 mice in each group). […]
Then, for another portion of ground samples of each group, the total RNAs were extracted using an RNeasy Mini Kit. The QuantiTect Reverse Transcription Kit was used to conduct reverse transcription on the total RNA to obtain the cDNA. […]

[3] = tested on: TGF-β protein; assay: TGF-β protein in mouse pulmonary tissue, western blotting; type: in vivo, mice; conditions: compared to oil group
Description: as §1
The samples of mice pulmonary tissue provided by Example 7 and preserved at −20° C. were removed from storage, and then ground in liquid nitrogen. […] The expressions of TGF-β protein, smad3 protein and surfactant C in the samples of each group were measured with western blotting, wherein the actin served as an internal control.

[4] = tested on: TGF-β protein; assay: TGF-β protein expression in TGF-β1-induced NHLF, western blotting (2-2); type: cell-based, human; conditions: TGF-β1-only control group = 1
Description: Normal Human lung fibroblasts (NHLF) were seeded into 6 cm culture dishes at a density of 2×10^5 cells/dish, comprising a control group and six experimental groups (7 dishes in total). The cells were cultured until the next day, and then the mediums were removed. Each group was respectively treated under the following conditions to conduct follow-up experiments: • (1) Positive control group: cells were cultured in a FGM-2 medium containing 1% serum and TGF-β1 (5 ng/ml) for 36 hours; • (2) Group I: cells were firstly cultured in a FGM-2 medium containing 1% serum and TGF-β1 (5 ng/ml) for 12 hours, and then compound (1) was added into the medium to provide a final concentration of 15 μg/ml; thereafter, the cells were cultured for another 24 hours; • (3) Group II: cells were firstly cultured in a FGM-2 medium containing 1% serum and TGF-β1 (5 ng/ml) for 12 hours, and then compound (1) was added into the medium to provide a final concentration of 25 μg/ml; thereafter, the cells were cultured for another 24 hours; • (4) Group III: cells were firstly cultured in a FGM-2 medium containing 1% serum and TGF-β1 (5 ng/ml) for 12 hours, and then compound (1) was added into the medium to provide a final concentration of 35 μg/ml; thereafter, the cells were cultured for another 24 hours; • (5) Group IV: cells were firstly cultured in a FGM-2 medium containing 1% serum and TGF-β1 (5 ng/ml) for 12 hours, and then the Pirfenidone was added into the medium to provide a final concentration of 100 μg/ml; thereafter, the cells were cultured for another 24 hours; • (6) Group V: cells were firstly cultured in a FGM-2 medium containing 1% serum and TGF-β1 (5 ng/ml) for 12 hours, and then the Pirfenidone was added into the medium to provide a final concentration of 250 μg/ml; thereafter, the cells were cultured for another 24 hours; and • (7) Group VI: cells were firstly cultured in a FGM-2 medium containing 1% serum and TGF-β1 (5 ng/ml) for 12 hours, and then the Pirfenidone was added into the medium to provide a final concentration of 500 μg/ml; thereafter, the cells were cultured for another 24 hours.
Thereafter, the proteins in the cells of each group were extracted, and the expressions of type I collagen, BMP-7 protein and TGF-β protein in the NHLF cells of each group were measured with western blotting. The results of the control group served as the basis for calculating the relative expression levels of the other groups.

[5] = High-dose group, compound (1) 50 mg/kg orally daily 30 days
[6] = Low-dose group, compound (1) 10 mg/kg orally daily 30 days

Question: What does the source list for CCCC=C1OC(=O)c2ccccc21 [compound (1)]?
Answer: other respiratory parameters [1, 5]: closer to the control group; accumulated volume (AV) [1, 5]: significantly increased; expiratory time (Te) [1, 5]: significantly decreased; relaxation time (RT) [1, 5]: significantly decreased; other respiratory parameters [1, 6]: closer to the control group; accumulated volume (AV) [1, 6]: significantly increased; expiratory time (Te) [1, 6]: significantly decreased; relaxation time (RT) [1, 6]: significantly decreased; Relative expression level (fold) IL-β ([2]; High-dose group: mRNA in pulmonary tissue, compound (1) 50 mg/kg-body weight orally every day for 30 days): 0.52 fold; Relative expression level (fold) IL-β ([2]; Low-dose group: mRNA in pulmonary tissue, compound (1) 10 mg/kg-body weight orally every day for 30 days): 1.02 fold; expression level of TGF-β protein in pulmonary tissue [3, 5]: significantly lower; expression level of TGF-β protein in pulmonary tissue [3, 6]: significantly lower; Relative expression level (fold) TGF-β protein ([4]; Group I: TGF-β1 5 ng/ml 12 h, then compound (1) 15 μg/ml 24 h): 0.81 fold; Relative expression level (fold) TGF-β protein ([4]; Group II: TGF-β1 5 ng/ml 12 h, then compound (1) 25 μg/ml 24 h): 0.77 fold; Relative expression level (fold) TGF-β protein ([4]; Group III: TGF-β1 5 ng/ml 12 h, then compound (1) 35 μg/ml 24 h): 0.58 fold
